# Experimental data taken from patent US20170049717A1, “DRUG FOR TREATMENT OF TINNITUS PATIENTS” (KYORIN PHARMACEUTICAL CO., LTD., priority 2014, published 2017).
# Columns and labels:
# [1] = test system: patients with tinnitus associated with sudden hearing loss; test: 24-week, placebo controlled, randomized, double-blind comparative trial; TRSw score; type: in vivo, human; settings: for Change in TRSw score, Neramexane: least mean squares (MMRM)
# Procedure: Film coated tablets comprising 12.5 mg neramexane mesylate were produced by the method disclosed in International Patent Publication No. WO2009/033649.
# The efficacy of neramexane mesylate on patients with tinnitus associated with sudden hearing loss was evaluated in a 24-week, placebo controlled, randomized, double-blind comparative trial.
# The film coated tablets comprising 12.5 mg neramexane mesylate or placebo tablets were administered for 24 weeks to patients having tinnitus. The dosage was started from 12.5 mg/day, and gradually increasing the dose to 50 mg/day over 4 weeks, and maintaining the same dose thereafter.
# The therapeutic effect of neramexane mesylate for the patients was evaluated using the TRSw score. Also, the state of anxiety or depression of the patients was evaluated using the HADS score. Statistical analysis was performed using a mixed-effect model repeated measure (MMRM) taking into consideration the covariance structure of error for the patient, with the change in TRSw score from before administration of neramexane mesylate tablets or placebo tablets (0 weeks) to each evaluation time point as the response variable, and with the drug-administered group, evaluation time point, interaction between drug-administered group and evaluation time point, 0-week TRSw score, gender and body weight as […]. The numerical values in the table represent least mean squares for the change in TRSw score at 16 weeks after administration and 24 weeks after administration. A change in score of less than 0 indicates a higher therapeutic effect.
# [2] = molecular target: α9/α10 nicotinic acetylcholine receptors (Rattus norvegicus, UniProt P43144+Q9JLB5); settings: Plazas, et al., Eur J Pharmacol., 2007; cited from earlier work
# [3] = molecular target: T1, 5-HT3 receptors (Homo sapiens, UniProt P46098); settings: cited from earlier work
# T1 sequence (P46098 24-478): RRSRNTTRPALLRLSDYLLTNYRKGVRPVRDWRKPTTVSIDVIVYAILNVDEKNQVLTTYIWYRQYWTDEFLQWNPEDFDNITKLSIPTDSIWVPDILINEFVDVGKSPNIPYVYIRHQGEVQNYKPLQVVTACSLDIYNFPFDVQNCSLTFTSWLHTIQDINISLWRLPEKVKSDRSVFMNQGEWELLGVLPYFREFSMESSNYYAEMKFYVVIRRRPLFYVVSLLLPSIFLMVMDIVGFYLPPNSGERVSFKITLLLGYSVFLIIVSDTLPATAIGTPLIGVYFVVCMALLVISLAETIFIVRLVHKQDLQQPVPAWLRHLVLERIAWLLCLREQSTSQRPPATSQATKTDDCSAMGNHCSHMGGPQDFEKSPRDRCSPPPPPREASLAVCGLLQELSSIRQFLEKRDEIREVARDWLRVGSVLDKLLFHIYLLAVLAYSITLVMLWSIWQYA
# [4] = sudden hearing loss, together with HADS (anxiety) of >10
# [5] = sudden hearing loss, together with HADS (depression) of >10
# [6] = sudden hearing loss, together with morbidity period of 48 months or longer
# [7] = sudden hearing loss, together with suffering period of less than 6 months
# Chain of α9/α10 nicotinic acetylcholine receptors (P43144 26-479): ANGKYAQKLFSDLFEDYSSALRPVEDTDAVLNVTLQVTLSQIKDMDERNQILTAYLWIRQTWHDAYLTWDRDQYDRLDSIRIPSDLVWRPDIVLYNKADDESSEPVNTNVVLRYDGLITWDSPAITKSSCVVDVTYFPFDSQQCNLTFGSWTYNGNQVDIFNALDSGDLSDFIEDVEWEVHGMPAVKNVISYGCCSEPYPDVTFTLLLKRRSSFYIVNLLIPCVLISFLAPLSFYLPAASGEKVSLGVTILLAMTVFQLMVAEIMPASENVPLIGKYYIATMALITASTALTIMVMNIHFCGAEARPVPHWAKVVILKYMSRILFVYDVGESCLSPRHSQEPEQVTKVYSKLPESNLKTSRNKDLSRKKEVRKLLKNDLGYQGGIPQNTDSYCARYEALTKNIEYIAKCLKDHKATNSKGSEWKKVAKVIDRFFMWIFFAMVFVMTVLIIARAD
# Chain of α9/α10 nicotinic acetylcholine receptors (Q9JLB5 25-447): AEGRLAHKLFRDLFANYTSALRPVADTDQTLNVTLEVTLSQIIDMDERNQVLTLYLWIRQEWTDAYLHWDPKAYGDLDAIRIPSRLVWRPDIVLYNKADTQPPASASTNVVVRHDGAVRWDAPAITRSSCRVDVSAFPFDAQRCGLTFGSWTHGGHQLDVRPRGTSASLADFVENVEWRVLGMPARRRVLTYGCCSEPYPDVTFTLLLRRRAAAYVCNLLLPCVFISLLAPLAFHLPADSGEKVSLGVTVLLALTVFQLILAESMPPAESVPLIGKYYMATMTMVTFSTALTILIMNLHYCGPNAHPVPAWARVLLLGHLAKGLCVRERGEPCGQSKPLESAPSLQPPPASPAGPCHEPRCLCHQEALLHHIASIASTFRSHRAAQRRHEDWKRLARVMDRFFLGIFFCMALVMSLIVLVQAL
compound,measurement,setting,value
"CC1(C)CC(C)(C)CC(C)(N)C1 [Neramexane, 1-amino-1,3,3,5,5-pentamethylcyclohexane]","Change in TRSw score, Neramexane − placebo",[1]; Tinnitus associated with sudden hearing loss,−1.8
same,therapeutic effect,[1]; group with a depression value of greater than 10 according to HADS,unexpectedly excellent therapeutic effect
same,therapeutic effect,[1]; group with a morbidity period of 48 months or longer,unexpectedly excellent therapeutic effect
same,therapeutic effect,[1]; group with a suffering period of shorter than 6 months,unexpectedly excellent therapeutic effect
same,therapeutic effect,[1]; group with an anxiety value of greater than 10 according to HADS,unexpectedly excellent therapeutic effect
same,"Change in TRSw score, Neramexane","[1]; change from 0 weeks, up to 50 mg/day, Tinnitus associated with sudden hearing loss",−2.3
same,"Change in TRSw score, Neramexane",[1]; [4],−2.4
same,"Change in TRSw score, Neramexane",[1]; [5],−3.1
same,"Change in TRSw score, Neramexane",[1]; [6],−4.0
same,"Change in TRSw score, Neramexane",[1]; [7],−3.7
same,therapeutic effect compared to placebo,[1]; patients affected by tinnitus associated with sudden hearing loss,clear therapeutic effect
same,"Change in TRSw score, Neramexane − placebo",[1]; [4],−3.7
same,"Change in TRSw score, Neramexane − placebo",[1]; [5],−3.7
same,"Change in TRSw score, Neramexane − placebo",[1]; [6],−4.2
same,"Change in TRSw score, Neramexane − placebo",[1]; [7],−3.8
same,inhibiting activity on α9/α10 nicotinic acetylcholine receptors,[2],exhibits inhibiting activity
same,inhibiting activity on 5-HT3 receptors,[3],exhibits inhibiting activity
